Experimental data from ChEMBL document CHEMBL1131278, “Synthesis and in vitro cancer cell growth inhibitory activity of monocyclic model compounds containing spongistatin triene side-chains” (Bioorg Med Chem Lett, 1998).
pIC50: −log10 of the molar value. ≈ marks a conversion by molar mass, not a printed value.

What was measured:
Assay type in all cases: functional
[1] = test system: SK-N-SH; assay: In vitro growth inhibitory activity against cancer cell line Neuroblast SK-N-SH; settings: Homo sapiens
[2] = test system: BXPC-3; assay: In vitro growth inhibitory activity against cancer cell line Pancreas-a BXPC-3; settings: Homo sapiens
[3] = test system: DU-145; assay: In vitro growth inhibitory activity against cancer cell line Prostate DU-145; settings: Homo sapiens
[4] = test system: SW-1736; assay: In vitro growth inhibitory activity against cancer cell line Thyroid ca SW 1736; settings: Homo sapiens
[5] = test system: FaDu; assay: In vitro growth inhibitory activity against cancer cell line Pharynx-sq FADU; settings: Homo sapiens
[6] = test system: NCI-H460; assay: In vitro growth inhibitory activity against cancer cell line Lung-NSC NCI-H460; settings: Homo sapiens
[7] = target: Tubulin alpha chain (Sus scrofa, UniProt P02550); assay: Compound was tested for its ability to inhibit the glutamate induced polymerization of tubulin
Tubulin alpha chain, sequence (P02550 whole entry, looked up): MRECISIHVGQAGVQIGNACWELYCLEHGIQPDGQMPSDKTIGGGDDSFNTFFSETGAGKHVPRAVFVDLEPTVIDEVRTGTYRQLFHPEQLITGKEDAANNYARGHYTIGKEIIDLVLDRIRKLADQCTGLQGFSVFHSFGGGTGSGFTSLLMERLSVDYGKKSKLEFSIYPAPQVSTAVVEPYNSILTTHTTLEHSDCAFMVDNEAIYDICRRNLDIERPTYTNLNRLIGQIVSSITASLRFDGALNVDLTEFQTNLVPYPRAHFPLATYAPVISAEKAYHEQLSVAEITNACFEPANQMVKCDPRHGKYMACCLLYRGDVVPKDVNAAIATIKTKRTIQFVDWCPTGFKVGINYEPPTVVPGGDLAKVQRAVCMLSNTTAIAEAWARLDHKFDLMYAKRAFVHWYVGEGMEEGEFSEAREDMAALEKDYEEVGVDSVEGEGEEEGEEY

Compound: C=C/C=C/[C@@H](O)CC(=C)C[C@H]1O[C@H](OC)[C@H](OCc2ccccc2)[C@@H](OCc2ccccc2)[C@@H]1OCc1ccccc1
- GI50 [1]: 0.31 µg/mL (≈ 0.543 µM)
- GI50 [2]: 0.25 µg/mL (≈ 0.438 µM)
- GI50 [3]: 0.32 µg/mL (≈ 0.561 µM)
- GI50 [4]: 0.7 µg/mL (≈ 1.23 µM)
- GI50 [5]: 0.27 µg/mL (≈ 0.473 µM)
- GI50 [6]: 0.26 µg/mL (≈ 0.456 µM)

Compound: C=C(Cl)/C=C/[C@@H](O)CC(=C)C[C@H]1O[C@H](OC)[C@H](OCc2ccccc2)[C@@H](OCc2ccccc2)[C@@H]1OCc1ccccc1
- GI50 [1]: 2.2 µg/mL (≈ 3.64 µM)
- GI50 [2]: 3.2 µg/mL (≈ 5.29 µM)
- GI50 [3]: > 10 µg/mL
- GI50 [4]: 5.8 µg/mL (≈ 9.58 µM)
- GI50 [5]: 5 µg/mL (≈ 8.26 µM)
- GI50 [6]: 6.6 µg/mL (≈ 10.9 µM)

Compound: C=C(Cl)/C=C/[C@@H](O)C(C)C(=C)C[C@H]1O[C@@H]2[C@H](C)[C@@H](OC(=O)C[C@H]3C[C@H](OC(C)=O)C[C@@]4(C[C@@](C)(O)C[C@H](CC(=C)[C@@H](C)[C@H](OC(C)=O)[C@H](C)C(=O)C[C@@H]5C[C@H](OC)C[C@@]6(C[C@@H](O)C[C@H](/C=C\CCC[C@H]7O[C@](O)(C[C@H](O)[C@H]7C)[C@H]2O)C6)O5)O4)O3)[C@@H]1O (stereo partly drawn) [Spongistatin-1]
- pIC50 [7]: 5.44
